Tested on: viruses
Test: Virus inactivation by fabric with attached dye under illumination
Assay type: cell-based
Settings: for virus inactivation (in words): low light illumination levels, FIG. 4

Structure (SMILES): Cc1cc2cc3cc(C)c(N)cc3nc2cc1N.Cl [acridine yellow G]
- viruses inactivated (exposure to light as low as 500 Lux): at least 99%
- virus inactivation (in words): unexpected efficiency in virus inactivation
- virus inactivation (in words) (listed as Acridine yellow G): very high virus inactivation
